Numbers after ± are expanded uncertainties.
Test: xn = mol fraction of the nth substance listed
Conditions: 298.15 K, Liquid, Vibrating tube method

CCC(=O)c1ccccc1 [ethyl phenyl ketone] + Cc1ccccc1
mass density [kg/m3]
Conditions | x2 = 0 | x2 = 0.1048 | x2 = 0.2025 | x2 = 0.3006 | x2 = 0.3991 | x2 = 0.4998 | x2 = 0.6004 | x2 = 0.7036 | x2 = 0.8028 | x2 = 0.902
100 kPa | 1005.3 ± 0.56 | 993.5 ± 0.51 | 982.2 ± 0.47 | 970.2 ± 0.43 | 957.5 ± 0.39 | 943.76 ± 0.37 | 929.02 ± 0.33 | 913.4 ± 0.32 | 897.3 ± 0.3 | 880.1 ± 0.29
2130 kPa | 1006.4 ± 0.56 | 994.6 ± 0.51 | 983.3 ± 0.47 | 971.3 ± 0.43 | 958.6 ± 0.39 | 944.95 ± 0.36 | 930.27 ± 0.33 | 914.7 ± 0.3 | 898.6 ± 0.28 | 881.5 ± 0.27
4150 kPa | 1007.5 ± 0.56 | 995.8 ± 0.51 | 984.5 ± 0.47 | 972.6 ± 0.43 | 959.9 ± 0.39 | 946.25 ± 0.36 | 931.61 ± 0.33 | 916 ± 0.3 | 900 ± 0.29 | 882.9 ± 0.28
6180 kPa | 1008.7 ± 0.56 | 996.9 ± 0.51 | 985.7 ± 0.47 | 973.8 ± 0.43 | 961.2 ± 0.39 | 947.55 ± 0.36 | 932.93 ± 0.33 | 917.4 ± 0.3 | 901.4 ± 0.29 | 884.4 ± 0.28
8210 kPa | 1009.8 ± 0.56 | 998.1 ± 0.51 | 986.9 ± 0.47 | 975 ± 0.43 | 962.4 ± 0.39 | 948.81 ± 0.36 | 934.23 ± 0.33 | 918.7 ± 0.3 | 902.8 ± 0.29 | 885.8 ± 0.28
10230 kPa | 1010.9 ± 0.56 | 999.2 ± 0.51 | 988 ± 0.47 | 976.1 ± 0.43 | 963.6 ± 0.39 | 950.05 ± 0.36 | 935.53 ± 0.33 | 920 ± 0.3 | 904.2 ± 0.28 | 887.2 ± 0.28
11250 kPa | 1011.5 ± 0.56 | 999.8 ± 0.51 | 988.6 ± 0.47 | 976.7 ± 0.43 | 964.2 ± 0.39 | 950.67 ± 0.36 | 936.16 ± 0.33 | 920.7 ± 0.31 | 904.8 ± 0.29 | 887.9 ± 0.28
12260 kPa | 1012.1 ± 0.56 | 1000.3 ± 0.51 | 989.2 ± 0.47 | 977.3 ± 0.43 | 964.8 ± 0.39 | 951.26 ± 0.36 | 936.78 ± 0.33 | 921.3 ± 0.31 | 905.5 ± 0.29 | 888.6 ± 0.29
14290 kPa | 1013.2 ± 0.56 | 1001.5 ± 0.51 | 990.3 ± 0.47 | 978.5 ± 0.43 | 966 ± 0.39 | 952.5 ± 0.36 | 938.05 ± 0.33 | 922.6 ± 0.31 | 906.8 ± 0.29 | 890 ± 0.28
16310 kPa | 1014.3 ± 0.56 | 1002.6 ± 0.51 | 991.4 ± 0.47 | 979.6 ± 0.43 | 967.1 ± 0.39 | 953.69 ± 0.36 | 939.26 ± 0.33 | 923.8 ± 0.31 | 908.1 ± 0.29 | 891.3 ± 0.28
18340 kPa | 1015.3 ± 0.56 | 1003.7 ± 0.51 | 992.5 ± 0.47 | 980.7 ± 0.43 | 968.3 ± 0.39 | 954.88 ± 0.36 | 940.49 ± 0.33 | 925.1 ± 0.31 | 909.4 ± 0.3 | 892.6 ± 0.29
20370 kPa | 1016.4 ± 0.56 | 1004.8 ± 0.51 | 993.6 ± 0.47 | 981.8 ± 0.43 | 969.4 ± 0.39 | 956.04 ± 0.36 | 941.68 ± 0.33 | 926.3 ± 0.31 | 910.7 ± 0.3 | 893.9 ± 0.29
22390 kPa | 1017.5 ± 0.56 | 1005.8 ± 0.51 | 994.7 ± 0.47 | 983 ± 0.43 | 970.5 ± 0.39 | 957.19 ± 0.36 | 942.87 ± 0.33 | 927.5 ± 0.31 | 911.9 ± 0.3 | 895.2 ± 0.29
24420 kPa | 1018.5 ± 0.56 | 1006.9 ± 0.51 | 995.8 ± 0.47 | 984 ± 0.43 | 971.7 ± 0.39 | 958.35 ± 0.36 | 944.05 ± 0.33 | 928.7 ± 0.31 | 913.1 ± 0.3 | 896.5 ± 0.3
26450 kPa | 1019.5 ± 0.56 | 1007.9 ± 0.51 | 996.8 ± 0.47 | 985.1 ± 0.43 | 972.7 ± 0.39 | 959.45 ± 0.36 | 945.21 ± 0.33 | 929.9 ± 0.31 | 914.3 ± 0.3 | 897.8 ± 0.3
28470 kPa | 1020.5 ± 0.56 | 1009 ± 0.52 | 997.9 ± 0.47 | 986.2 ± 0.43 | 973.8 ± 0.39 | 960.58 ± 0.36 | 946.36 ± 0.33 | 931.1 ± 0.31 | 915.5 ± 0.3 | 899 ± 0.3
29490 kPa | 1021 ± 0.57 | 1009.5 ± 0.51 | 998.4 ± 0.47 | 986.7 ± 0.43 | 974.3 ± 0.39 | 961.14 ± 0.36 | 946.92 ± 0.33 | 931.7 ± 0.31 | 916.1 ± 0.3 | 899.6 ± 0.3
30500 kPa | 1021.6 ± 0.57 | 1010 ± 0.52 | 998.9 ± 0.47 | 987.2 ± 0.43 | 974.9 ± 0.4 | 961.68 ± 0.36 | 947.48 ± 0.34 | 932.2 ± 0.32 | 916.7 ± 0.31 | 900.2 ± 0.3
32530 kPa | 1022.5 ± 0.57 | 1011 ± 0.52 | 999.9 ± 0.47 | 988.3 ± 0.43 | 976 ± 0.39 | 962.77 ± 0.36 | 948.6 ± 0.33 | 933.4 ± 0.32 | 917.9 ± 0.3 | 901.4 ± 0.3
34550 kPa | 1023.5 ± 0.57 | 1012 ± 0.52 | 1000.9 ± 0.47 | 989.3 ± 0.43 | 977 ± 0.39 | 963.83 ± 0.36 | 949.68 ± 0.33 | 934.5 ± 0.31 | 919 ± 0.31 | 902.6 ± 0.31
36580 kPa | 1024.5 ± 0.57 | 1013 ± 0.52 | 1001.9 ± 0.47 | 990.3 ± 0.43 | 978 ± 0.39 | 964.89 ± 0.36 | 950.78 ± 0.33 | 935.6 ± 0.32 | 920.2 ± 0.31 | 903.8 ± 0.31
38600 kPa | 1025.5 ± 0.57 | 1013.9 ± 0.52 | 1002.9 ± 0.47 | 991.3 ± 0.43 | 979 ± 0.39 | 965.93 ± 0.36 | 951.82 ± 0.33 | 936.7 ± 0.31 | 921.2 ± 0.31 | 904.9 ± 0.3
39620 kPa | 1025.9 ± 0.57 | 1014.4 ± 0.51 | 1003.4 ± 0.47 | 991.8 ± 0.42 | 979.6 ± 0.39 | 966.46 ± 0.35 | 952.38 ± 0.32 | 937.2 ± 0.3 | 921.8 ± 0.29 | 905.2 ± 0.3
